Source: patent publication US20230013227A1, “ARYL-ANILINE AND HETEROARYL-ANILINE COMPOUNDS FOR TREATMENT OF BIRTHMARKS” (NFlection Therapeutics, Inc., priority 2018, published 2023)
Where two headings read alike, the source gives them in different places.

Experiments:
MEK1 = target: T1, MEK1 (Homo sapiens, UniProt Q02750); assay: MEK Inhibition Assay-1 (Example 2): 33P-ATP, P81 filter-binding kinase assay; conditions: Example 2, read-out: Assay 1: biochemical MEK IC50
T1 construct: N-terminal His-tagged recombinant human full length protein; purchased Invitrogen PV3303; host or cells: insect cells
T1 sequence (Q02750 whole entry): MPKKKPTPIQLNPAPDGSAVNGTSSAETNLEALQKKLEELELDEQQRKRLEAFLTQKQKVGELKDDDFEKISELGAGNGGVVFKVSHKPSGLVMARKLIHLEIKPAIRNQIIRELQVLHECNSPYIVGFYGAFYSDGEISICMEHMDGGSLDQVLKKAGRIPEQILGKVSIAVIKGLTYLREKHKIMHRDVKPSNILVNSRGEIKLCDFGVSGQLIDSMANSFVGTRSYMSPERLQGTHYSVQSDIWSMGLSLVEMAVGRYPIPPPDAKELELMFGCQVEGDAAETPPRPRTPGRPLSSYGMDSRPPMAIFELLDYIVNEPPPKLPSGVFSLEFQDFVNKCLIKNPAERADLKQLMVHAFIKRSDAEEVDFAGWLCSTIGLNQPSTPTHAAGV
Description: The following procedure can be used to measure biochemical activity. MEK1 inhibitory activity of compounds were tested using the following procedure. […] Nat Biotechnoi 2011, 29(11), 1039-45.
• Reaction buffer: 20 mM Hepes (pH 7.5), 10 mM MgCl2, 1 mM EGTA, 0.02% Brij35, 0.02 mg/mL BSA, 0.1 mM Na3VO4, 2 mM DTT, 1% DMSO • Enzyme: MEK1, Invitrogen cat #PV3303 • N-terminal His-tagged recombinant human full length protein, expressed in insect cells. Activated in vitro by RAF1. MW=49.2 kDa, GenBank Accession No. NP_002746. • Substrate: 5 μM ERK2 (K52R), • Kinase-dead mutant, (GenBank Accession No. NM_0011949), aa2-358 with N-terminal His6 tag, MW=43.63 kDa, expressed in E. coli.
The substrate was prepared in freshly prepared Reaction Buffer. The kinase was delivered into the substrate solution and gently mixed. Test compounds were delivered in 100% DMSO into the kinase reaction mixture by Acoustic technology (Echo550; nanoliter range), and incubated for 20 min at room temperature. ^33P-ATP was delivered into the reaction mixture to initiate the reaction. The reaction mixture was incubated for 2 hours at room temperature. Kinase activity was detected by P81 filter-binding method.

MAP2K1 (MEK1) = target: T2, MAP2K1 (MEK1) (Homo sapiens, UniProt Q02750); assay: MEK Inhibition Assay-2 (Example 3): Z'-LYTE biochemical assay; conditions: Table 6; procedure of Example 3; read-out: IC50 against MEK1
T2 construct: purchased ThermoFisher
T2 sequence (Q02750 whole entry): as above
Description: MEK1 inhibitory activity of compounds were tested using the following procedure (protocol available at thermofisher.com/content/dam/LifeTech/migration/files/drug-discovery/pdfs.par.60256.file.dat/20130430%20ssbk%20customer%20protocol%20and%20assay%20conditions.pdf). The Z′-LYTE biochemical assay (ThermoFisher) employs a fluorescence-based, coupled-enzyme format and is based on the differential sensitivity of phosphorylated and non-phosphorylated peptides to proteolytic cleavage.
Test compounds in 100% DMSO were screened in 1% DMSO (final) in the well. For 10 point titrations, 3-fold serial dilutions are conducted from the starting concentration of 30 μM.
After the 1 hour incubation, 5 μL of a 1:1024 dilution of Development Reagent A (available from Invitrogen, catalog no. PV3295) was added.
ATP solutions were diluted to a 4× working concentration in Kinase Buffer (50 mM HEPES pH 7.5, 0.01% BRIJ-35, 10 mM MgCl2, 1 mM EGTA). ATP Km apparent was previously determined using a Z′-LYTE assay. The Development Reagent was diluted in Development Buffer (available from Invitrogen, catalog no. P3127).
Assay Protocol: 2.5 μL of 4× test compound or 100 nL of 100× Test Compound plus 2.4 μL Kinase Buffer, 5 μL of the 2× Peptide/Kinase Mixture, 2.5 μL of 4×ATP Solution were added to the plates and placed on a shake plate for 30-seconds. The kinase reaction was allowed to proceed for 60-minute at room temperature, before 5 μL of Development Reagent Solution was added, and the mixture agitated for 30-seconds on a shake plate. The mixture was incubated for 60-minute at room temperature. Fluorescence was measured using a plate reader and the data were analyzed.
This control yielded 100% cleaved peptide in the Development Reaction. The 100% Phosphorylation Control, which consisted of a synthetically phosphorylated peptide of the same sequence as the peptide substrate, was designed to allow for the calculation of percent phosphorylation. This control yielded a very low percentage of cleaved peptide in the Development Reaction. The 0% Phosphorylation and 100% Phosphorylation Controls allow for the calculation of the percent phosphorylation achieved in a specific reaction well.
The minimum emission ratio in a screen was established by the 0% Inhibition Control, which contained active kinase. This control was designed to produce a 10-50% phosphorylated peptide in the Kinase Reaction. Cascade assays may produce up to 70% phosphorylated peptide.
A known inhibitor control standard curve, 10 point titration, was run for each individual kinase on the same plate as the kinase to ensure the kinase was inhibited within an expected IC50 range previously determined.
The following controls are prepared for each concentration of Test Compound assayed. […] The expected value for a non-interfering compound should be 100%. Any value outside of 90% to 110% was flagged. […] The expected value for a non-fluorescence compound should be 0%. Any value >20% was flagged.
The data in Table A was calculated. XLfit from IDBS was used. The dose response curve was curve fit to model number 205 (sigmoidal dose-response model).

[1] = Table 10, compounds of formula (IV)
[2] = Table 7, compounds of formula (I)

Row | Compound | IC50 (MEK1; [1]) [µM] | IC50 (MAP2K1 (MEK1)) [µM] | IC50 (MEK1; [2]) [µM]
1 | Cc1cc(I)ccc1Nc1cc(C#N)ccc1C(=O)NOCC1CC1 [Compound 1.013] |  | 0.15 to 1.5 | 
2 | N#Cc1ccc(C(=O)NOCCN)c(Nc2ccc(I)cc2F)c1 [Compound 1.018] |  | 0.15 to 1.5 | 
3 | COC(=O)CCONC(=O)c1ccc(C#N)cc1Nc1ccc(I)cc1F [Compound 1.022] |  | > 1.5 | 
4 | N#Cc1ccc(C(=O)N2CC(O)C2)c(Nc2ccc(I)cc2F)c1 [Compound 1.002] |  | > 1.5 | 
5 | N#Cc1ccc(C(=O)NOCCO)c(Nc2ccc(I)cc2F)c1 [Compound 1.010] |  | ≤ 0.15 | ≤ 0.15
6 | Cc1cc(I)ccc1Nc1cc(C#N)ccc1C(=O)NOCCO [Compound 1.011] |  | 0.15 to 1.5 | 
7 | CONC(=O)c1ccc(C#N)cc1Nc1ccc(I)cc1F [Compound 1.007] |  | 0.15 to 1.5 | 0.15 to 1.5
8 | N#Cc1ccc(C(=O)O)c(Nc2ccc(I)cc2F)c1 [Compound 1.001] |  | 0.15 to 1.5 | 
9 | N#Cc1ccc(C(=O)NO)c(Nc2ccc(I)cc2F)c1 [Compound 1.017] |  | ≤ 0.15 | 
10 | N#Cc1ccc(C(=O)NOCC2CC2)c(Nc2ccc(I)cc2F)c1F [Compound 1.031] |  | ≤ 0.15 | ≤ 0.15
11 | N#Cc1ccc(C(=O)NOCC2CC2)c(Nc2ccc(I)cc2F)c1 [Compound 1.012] |  | 0.15 to 1.5 | 
12 | N#Cc1ccc(C(=O)NOCCO)c(Nc2ccc(I)cc2F)c1F [Compound 1.030] |  | ≤ 0.15 | ≤ 0.15
13 | CCCONC(=O)c1ccc(C#N)cc1Nc1ccc(I)cc1F [Compound 1.009] |  | 0.15 to 1.5 | 0.15 to 1.5
14 | CCONC(=O)c1ccc(C#N)cc1Nc1ccc(I)cc1F [Compound 1.008] |  | 0.15 to 1.5 | ≤ 0.15

Second part, the molecule after the results:

Row | IC50 (MEK1; [1]) [µM] | IC50 (MAP2K1 (MEK1)) [µM] | IC50 (MEK1; [2]) [µM] | Compound
15 | 0.5 to 1 |  |  | CC(=O)c1sc(Nc2ccc(I)cc2F)c(C(=O)N[C@@H]2CCCNC2)c1C [Compound 4.016]
16 |  | ≤ 0.15 |  | NCCONC(=O)c1c(Nc2ccc(I)cc2F)sc2c1CCCC2=O [Compound 4.033]
17 | ≤ 0.5 |  |  | CC(=O)c1sc(Nc2ccc(I)cc2F)c(C(=O)NOCC2CC2)c1C [Compound 4.023]
18 | 0.5 to 1 |  |  | CC(=O)c1sc(Nc2ccc(I)cc2F)c(C(=O)N[C@@H]2CCNC2)c1C [Compound 4.017]
19 | 1 to 5 |  |  | CC(=O)c1sc(Nc2ccc(I)cc2F)c(C(=O)NCC(C)(C)N)c1C [Compound 4.020]
20 | ≤ 0.5 | ≤ 0.15 |  | O=C1CCCc2c1sc(Nc1ccc(I)cc1F)c2C(=O)NOCC1CC1 [Compound 4.032]
21 |  | 0.15 to 1.5 |  | NCCCn1ccc2cncc(Nc3ccc(I)cc3F)c2c1=O [Compound 5.003]
22 |  | ≤ 0.15 |  | O=c1c2c(Nc3ccc(I)cc3F)cncc2ccn1C[C@@H](O)CO [Compound 5.001]
23 |  | 0.15 to 1.5 |  | CC(=O)c1sc(Nc2ccc(I)cc2F)c(C(=O)NC[C@@H](O)CO)c1C [Compound 4.015]
24 | 0.5 to 1 |  |  | CONC(=O)c1c(Nc2ccc(I)cc2F)sc(C(C)=O)c1C [Compound 4.021]
25 |  | 0.15 to 1.5 |  | O=C1NCCc2cncc(Nc3ccc(I)cc3F)c21 [Compound 5.012]
26 | ≤ 0.5 |  |  | CCONC(=O)c1c(Nc2ccc(I)cc2F)sc(C(C)=O)c1C [Compound 4.022]
27 |  | 0.15 to 1.5 |  | O=C1c2c(cncc2Nc2ccc(I)cc2F)CCN1OCCO [Compound 5.010]
28 |  | > 1.5 |  | COC(=O)Cn1ccc2cncc(Nc3ccc(I)cc3F)c2c1=O [Compound 5.005]
29 |  | ≤ 0.15 |  | O=c1c2c(Nc3ccc(I)cc3F)cncc2ccn1C[C@H](O)CO [Compound 5.002]
30 |  | > 1.5 |  | O=C(O)Cn1ccc2cncc(Nc3ccc(I)cc3F)c2c1=O [Compound 5.004]
31 | 5 to 10 |  |  | CC(=O)c1sc(Nc2ccc(I)cc2F)c(C(=O)N2CC[C@@H](N)C2)c1C [Compound 4.018]
32 |  | ≤ 0.15 |  | O=C1CCCc2c1sc(Nc1ccc(I)cc1F)c2C(=O)NOC[C@H](O)CO [Compound 4.030]
33 |  | 0.15 to 1.5 |  | CC(=O)c1sc(Nc2ccc(I)cc2F)c(C(=O)NC[C@H](O)CO)c1C [Compound 4.014]
34 |  | ≤ 0.15 |  | O=C1CCCc2c1sc(Nc1ccc(I)cc1F)c2C(=O)NC[C@H](O)CO [Compound 4.034]
35 |  | ≤ 0.15 |  | O=C1CCCc2c1sc(Nc1ccc(I)cc1F)c2C(=O)NC[C@@H](O)CO [Compound 4.035]
36 |  | 0.15 to 1.5 |  | O=c1c2c(Nc3ccc(I)cc3F)cncc2ccn1O [Compound 5.006]
37 | ≤ 0.5 | 0.15 to 1.5 |  | CC(=O)c1sc(Nc2ccc(I)cc2F)c(C(=O)NOCCO)c1C [Compound 4.013]
38 |  | 0.15 to 1.5 |  | O=c1c2c(Nc3ccc(I)cc3F)cncc2ccn1OCCO [Compound 5.007]
39 |  | 0.15 to 1.5 |  | CCON1CCc2cncc(Nc3ccc(I)cc3F)c2C1=O [Compound 5.011, 2-ethoxy-8-((2-fluoro-4-iodophenyl)amino)-3,4-dihydro-2,6-naphthyridin-1(2H)-one]
